How the values were obtained:
[1] = tested on: SPF Kunming mice; assay: Acute toxicity in mice; assay type: in vivo; settings: for Granulocyte number GR# / Granulocyte percentage GR % / Hematocrit HCT / Hemoglobin HGB / Lymphocyte number Lym# / Lymphocyte percentage Lym % / Mean corpuscular hemoglobin MCH / Mean corpuscular volume MCV / Mean corpuscular-hemoglobin concentration MCHC / Mean platelet volume MPV / Middle cell number Mid# / Middle cell percentage Mid % / Platelet distribution PDW / Platelet-large cell count PLCC / Platelet-large cell ratio PLCR / Plateletcrit PCT / Platelets PLT / Red blood cell distribution width coefficient of variation RDW_CV / Red blood cell distribution width standard deviation RDW_SD / Red blood cells RBC / While blood cells WBC: acute toxicity
Experimental: The groups were recorded as a sodium chloride solution group, a low dosage group, a medium dosage group and a high dosage group, respectively, and the general conditions and the body weight were observed per day within 7 to 10 d. At the end of the experimental period, blood samples were collected for hematological and serum biochemical analysis (refer to Embodiment 4). A histopathological examination of major organs and tissue was performed on all animals in each group (refer to Embodiment 4).

[2] = tested on: gouty arthritis mouse model; assay: Gouty arthritis mouse model (sodium urate); assay type: in vivo, BALB/c mice; settings: for SOD in mouse ankle joint tissue: model group 1.07, normal 6.07; for MPO in mouse ankle joint tissue: model group 2.49, normal 0.38; for GSH in mouse ankle joint tissue: model group 18.06, normal 47.05; for IL-1β in serum of mice: model group 24.97, normal 12.66; for MDA in mouse ankle joint tissue: model group 26.69, normal 5.74; for IL-10 in serum of mice: model group 36.03, normal 27.20; for IL-6 in serum of mice: model group 90.05, normal 52.97; for TNF-α in serum of mice: model group 249.41, normal 117.58
Experimental: Mice were randomly divided into 5 groups: a normal group, a model group, a glucosamine sulfate (positive control) group, an Akk low-concentration experimental (Akk-L) group, and an Akk high-concentration experimental (Akk-H) group, with 10 mice in each group. The mice in the normal group and the mice in the model group were intragastrically administered with distilled water at a dosage of 0.1 mL/10 g. bw per day. The mice in the glucosamine sulfate group were intragastrically administered with glucosamine sulfate at a dosage of 195 mg/kg. bw. The mice in the Akk-L group and the mice in the Akk-H group were intragastrically administered with Akk experimental bacteria at a dosage of 10^8 CFU/kg. bw and 10^9 CFU/kg. bw, respectively, for 7 consecutive days. Then, all experimental mice were anesthetized with isoflurane, and then 50 μL of PBS solution was injected into the tibiotarsal joint (ankle joint) of the right paw of the mouse in the normal group. 50 mg of sodium urate was added to 1 mL of PBS buffer to prepare a suspension. 50 μL of suspension was injected into the tibiotarsal joints (ankle joint) of the right paws of the rest of the mice except the mice in the […] to induce gouty arthritis. After the mice woke up, they were intragastrically administrated with a corresponding sample for 7 d still at the dosage of the sample intragastrically administrated in the previous 7 days.
0.1 g of mouse ankle joint tissue was weighed and added into […] containing 0.9 mL of saline and mixing was performed. Subsequently, mixed tissue samples were centrifuged at a speed of 4000 rpm for 10 min to obtain liquid supernatant. Next, related indicators in the liquid supernatant of a tissue homogenate was determined using assay kits for MPO, SOD, GSH, and MDA.
A taken-out whole blood sample of the mouse was centrifuged at 4° C. at 4000 rpm for 10 min to obtain supernatant serum. Serum-related inflammatory indicators were determined using the ELISA kit for IL-6, IL-10, IL-1β, and TNF-α.

[3] = high dosage 5×10^11 CFU/d intragastric for 1 d
[4] = low dosage 1×10^9 CFU/d intragastric for 1 d
[5] = medium dosage 5×10^10 CFU/d intragastric for 1 d
[6] = Akk-H 10^9 CFU/kg. bw intragastric
[7] = Akk-L 10^8 CFU/kg. bw intragastric

Substance: Akkermansia muciniphila [AKK PROBIO]
- pathological sections of livers and kidneys ([1]; acute): no significant pathological injury
- death ([1]; acute intragastric administration, high, medium and low dosage (5×10^11, 5×10^10, 1×10^9 CFU/d)): no death occurs
- Granulocyte number GR# [1, 3]: 0 ± 0 10^9/L
- Granulocyte percentage GR % [1, 3]: 0 ± 0%
- Hematocrit HCT [1, 3]: 7.35 ± 2.76%
- Hemoglobin HGB [1, 3]: 110.00 g/L
- Lymphocyte number Lym# [1, 3]: 0.54 ± 0.37 10^9/L
- Lymphocyte percentage Lym % [1, 3]: 100 ± 0%
- Mean corpuscular hemoglobin MCH [1, 3]: 81.55 pg
- Mean corpuscular volume MCV [1, 3]: 52.60 fL
- Mean corpuscular-hemoglobin concentration MCHC [1, 3]: 1579.00 g/L
- Mean platelet volume MPV [1, 3]: 9.20 ± 0.71 fL
- Middle cell number Mid# [1, 3]: 0 ± 0 10^9/L
- Middle cell percentage Mid % [1, 3]: 0 ± 0%
- Platelet distribution PDW [1, 3]: 21.00%
- Platelet-large cell count PLCC [1, 3]: 218.50 ± 10^9/L
- Platelet-large cell ratio PLCR [1, 3]: 19.70%
- Plateletcrit PCT [1, 3]: 1.04 ± 0.40%
- Platelets PLT [1, 3]: 1112.50 ± 10^9/L
- Red blood cell distribution width coefficient of variation RDW_CV [1, 3]: 13.75%
- Red blood cell distribution width standard deviation RDW_SD [1, 3]: 92.55 fL
- Red blood cells RBC [1, 3]: 1.38 ± 0.35 10^12/L
- While blood cells WBC [1, 3]: 0.54 ± 0.37 10^9/L
- Granulocyte number GR# [1, 4]: 0.05 ± 10^9/L
- Granulocyte percentage GR % [1, 4]: 3.8%
- Hematocrit HCT [1, 4]: 11.70%
- Hemoglobin HGB [1, 4]: 87.50 g/L
- Lymphocyte number Lym# [1, 4]: 0.82 ± 10^9/L
- Lymphocyte percentage Lym % [1, 4]: 95.55%
- Mean corpuscular hemoglobin MCH [1, 4]: 45.35 pg
- Mean corpuscular volume MCV [1, 4]: 55.90 fL
- Mean corpuscular-hemoglobin concentration MCHC [1, 4]: 802.00 g/L
- Mean platelet volume MPV [1, 4]: 9.55 fL
- Middle cell number Mid# [1, 4]: 0.01 ± 10^9/L
- Middle cell percentage Mid % [1, 4]: 0.65%
- Platelet distribution PDW [1, 4]: 19.10%
- Platelet-large cell count PLCC [1, 4]: 273.50 ± 10^9/L
- Platelet-large cell ratio PLCR [1, 4]: 27.65%
- Plateletcrit PCT [1, 4]: 0.89%
- Platelets PLT [1, 4]: 921.00 ± 10^9/L
- Red blood cell distribution width coefficient of variation RDW_CV [1, 4]: 14.85%
- Red blood cell distribution width standard deviation RDW_SD [1, 4]: 76.40 fL
- Red blood cells RBC [1, 4]: 2.12 ± 10^12/L
- While blood cells WBC [1, 4]: 0.88 ± 10^9/L
- Granulocyte number GR# [1, 5]: 0.06 ± 10^9/L
- Granulocyte percentage GR % [1, 5]: 4.20 ± 5.94%
- Hematocrit HCT [1, 5]: 11.70%
- Hemoglobin HGB [1, 5]: 96.00 g/L
- Lymphocyte number Lym# [1, 5]: 0.99 ± 10^9/L
- Lymphocyte percentage Lym % [1, 5]: 95.20%
- Mean corpuscular hemoglobin MCH [1, 5]: 49.20 pg
- Mean corpuscular volume MCV [1, 5]: 53.05 fL
- Mean corpuscular-hemoglobin concentration MCHC [1, 5]: 892.00 g/L
- Mean platelet volume MPV [1, 5]: 9.15 ± 0.78 fL
- Middle cell number Mid# [1, 5]: 0.01 ± 10^9/L
- Middle cell percentage Mid % [1, 5]: 0.60%
- Platelet distribution PDW [1, 5]: 20.15%
- Platelet-large cell count PLCC [1, 5]: 158.50 ± 10^9/L
- Platelet-large cell ratio PLCR [1, 5]: 18.00%
- Plateletcrit PCT [1, 5]: 0.84 ± 0.54%
- Platelets PLT [1, 5]: 891.50 ± 10^9/L
- Red blood cell distribution width coefficient of variation RDW_CV [1, 5]: 13.05%
- Red blood cell distribution width standard deviation RDW_SD [1, 5]: 73.40 fL
- Red blood cells RBC [1, 5]: 2.28 ± 10^12/L
- While blood cells WBC [1, 5]: 1.06 ± 10^9/L
- weight of major organs (organ indices) ([1]; acute, heart, liver, spleen, kidneys, thymus, brain, testes, lungs, stomach, intestine, vs control group): substantially no significant difference
- activity of glutamic oxalacetic transaminase (GOT) in both serum and liver ([1]; acute, vs control group): no significant difference
- activity of glutamic pyruvate transaminase (GPT) in both serum and liver ([1]; acute, vs control group): no significant difference
- concentration of blood urea nitrogen (BUN) in serum ([1]; acute, vs control group): no significant difference
- content of creatinine (GRE) in serum ([1]; acute, vs control group): no significant difference
- level of glucose (GLU) in both serum and liver ([1]; acute, vs control group): no significant difference
- level of the bile acid in both serum and liver ([1]; acute, vs control group): no significant difference
- level of the cholesterol in both serum and liver ([1]; acute, vs control group): no significant difference
- level of total protein (TP) in both serum and liver ([1]; acute, vs control group): no significant difference
- level of the triglyceride in serum ([1]; acute, vs control mice): no significant difference
- changes of blood glucose per day ([1]; acute, vs control saline group): no significant difference
- changes of body weight per day ([1]; acute, vs control saline group): no significant difference
- changes of food intake per day ([1]; acute, vs control saline group): no significant difference
- level of triglyceride in the liver ([1]; acute, vs control saline group): significantly lower
- various blood indicators ([1]; acute, vs control saline group): no significant difference
- SOD in mouse ankle joint tissue [2, 6]: 4.70 ± 0.16 U/mg
- MPO in mouse ankle joint tissue [2, 6]: 0.77 ± 0.06 U/g
- GSH in mouse ankle joint tissue [2, 6]: 39.28 ± 2.39 mg/g
- IL-1β in serum of mice [2, 6]: 18.48 ± 1.34 ng/mL
- MDA in mouse ankle joint tissue [2, 6]: 12.97 ± 1.20 nmol/mg
- IL-10 in serum of mice [2, 6]: 28.72 ± 1.35 ng/mL
- IL-6 in serum of mice [2, 6]: 58.83 ± 2.60 ng/mL
- TNF-α in serum of mice [2, 6]: 148.87 ± 9.60 ng/mL
- SOD in mouse ankle joint tissue [2, 7]: 2.31 ± 0.43 U/mg
- MPO in mouse ankle joint tissue [2, 7]: 1.97 ± 0.19 U/g
- GSH in mouse ankle joint tissue [2, 7]: 29.89 ± 2.63 mg/g
- IL-1β in serum of mice [2, 7]: 21.83 ± 1.72 ng/mL
- MDA in mouse ankle joint tissue [2, 7]: 20.93 ± 1.30 nmol/mg
- IL-10 in serum of mice [2, 7]: 34.17 ± 2.18 ng/mL
- IL-6 in serum of mice [2, 7]: 71.59 ± 5.46 ng/mL
- TNF-α in serum of mice [2, 7]: 211.76 ± 10.58 ng/mL
